Data published in patent publication US20250108038A1 (priority 2023, published 2025).
Values joined by “and” are separate entries in the source; they are usually repeats but may differ in a detail not shown here. Equal entries are not always repeated.

How the values were obtained:
in vivo = details: for plasma concentration of Compound A: Compound A single PO 5.102 mg/kg
Protocol: Dose solutions were prepared freshly on each day of studies prior to dosing.
The animals were weighed immediately prior to dosing and the dose volume was calculated individually based the obtained body weight and the nominal dose volume. […] The nominal dose volume was 10 mL/kg in both studies.
Cage side observation was performed before and after dosing as well as at each scheduled sample collection time. The observation included appearance, posture, behavior, morbidity and mortality. Abnormal findings, if any, are required to be recorded in the study record and communicated with study director, veterinarian, and Supernus if necessary.
Approximately 40 μL blood was collected at each scheduled time point from saphenous veins. The actual sample collection time was within 1 min. of the nominal time for collections prior to or at 1 hour, and within 5% of the nominal values for collections post 1 hour.
The blood samples were placed in pre-labeled micro-centrifuge tubes containing K2EDTA as anticoagulant and kept on ice before they were processed to plasma within 30 minutes of collection by centrifugation at 4° C., 3000 g for 5 minutes. The plasma samples were stored at −70±10° C. until LC-MS/MS analysis.
Plasma concentrations below the LLOQ prior to Tmax were set to zero, and those after Tmax were excluded from PK calculation. The nominal dose and the nominal sample collection time were used for the calculation. The values of plasma concentrations and PK parameters are reported to three significant figures. The average values of each treatment group are presented as mean±SD.

Wistar rats = format: in vivo, Wistar rat
Protocol: Animals were trained in eight automated 5C-SRTT operant chambers (Med Associates, St. Albans, VT, USA), controlled by MedPC software (Med Associates). Briefly, each operant chamber was equipped with 5 apertures containing a photocell beam to detect nose pokes and a lamp (2.8 W) that could be illuminated randomly at varying durations. Food pellets (45 mg chow pellet, BioServ, Frenchtown, NJ, USA) were delivered automatically to a magazine, located on the opposite wall to the nose pokes, that was also equipped with a light that turned on to indicate that a pellet had been dispensed. The house-light remained on for the entire session unless an error or omission occurred. Training sessions began with the delivery of a food reward and retrieval triggered the first trial. […] Training began with the stimulus duration set at 10 sec, a limited hold period of 5 sec and an ITI of 5 sec. […] Sessions ended when 40 minutes had lapsed or 100 trials had been completed.
Upon meeting the performance criteria, animals were assessed in the vSD version of the task where the following stimulus durations were presented in a pseudorandom manner: 0.3, 0.6 and 0.9 sec. Later, subjects were assessed in the vITI version where 2.5, 5.0 and 10.0 sec ITIs were employed in a pseudorandom manner. Performance parameters measured were: % hit ((# correct/(# correct+# incorrect including omissions))×100); % correct ((# correct/(# correct+# incorrect excluding omissions))×100); premature responses (# of nose-pokes into any aperture after trial initiation but before onset of the stimulus light); timeout responses (# of nose pokes into any aperture during a timeout period), perseverative responses (# of nose pokes occurring after the correct response had been made but before reward collection); # of food magazine head entries, omissions and total trials completed. The latency to correct response (time taken from the onset of the nose poke light stimulus to making the correct nose poke response), latency to incorrect response (time taken from onset of nose poke light stimulus to making the incorrect nose poke response), and latency to reward (i.e., the magazine latency, time taken from making a correct nose poke response to retrieving the reward from the magazine) was also recorded.
Drug doses and vehicle were administered in a pseudorandom fashion. Drug or vehicle sessions were performed 1-2 times per week with maintenance training (behavioral testing without drug or vehicle injections) interspersed.
All data were collated and entered into Microsoft Excel spreadsheets. The data were subsequently imported into StatView 5.0 for statistical analyses. One and two factor analysis of variance (ANOVA) tests were used with repeated measures when indicated, followed by Fisher LSD or Student Newman Keuls as post-hoc tests. All results were expressed as the mean (±S.E.M.). Differences between means from experimental groups were considered significant at the p<0.05 level. The statistical F values and degrees of freedom associated with the two factor ANOVA analyses are provided in the text of this report. Please refer to the statistical reports in the appendices for the values associated with one factor ANOVAs for the overall means and overall total values.

[1] = male, CD-1, mouse, in vivo, po, 5.102 mg/kg

OC1(c2ccc(Cl)cc2)c2ccccc2C2=NCCN21 (stereo not shown) [Compound A, 5-(4-chlorophenyl)-2,3-dihydroimidazo[1,2-b]isoindol-5-ol, reference compound]
plasma concentration of Compound A (in vivo; 0.500 h, individual mice, 5.102 mg/kg): 117 ng/mL and 172 ng/mL and 141 ng/mL
plasma concentration of Compound A (in vivo; 0.500 h, mean): 143 ng/mL
plasma concentration of Compound A (in vivo; 1.00 h, individual mice, 5.102 mg/kg): 77.8 ng/mL and 71.7 ng/mL and 102 ng/mL
plasma concentration of Compound A (in vivo; 1.00 h, mean): 83.8 ng/mL
plasma concentration of Compound A (in vivo; 2.00 h, individual mice, 5.102 mg/kg): 32.3 ng/mL and 25.2 ng/mL and 24.4 ng/mL
plasma concentration of Compound A (in vivo; 2.00 h, mean): 27.3 ng/mL
plasma concentration of Compound A (in vivo; 4.00 h, individual mice, 5.102 mg/kg): 9.42 ng/mL and 4.31 ng/mL and 8.99 ng/mL
plasma concentration of Compound A (in vivo; 4.00 h, mean): 7.57 ng/mL
plasma concentration of Compound A (in vivo; 8.00 h, individual mice): BQL
plasma concentration of Compound A (in vivo; 24.0 h, individual mice): BQL
Tmax of Compound A (in vivo; male, CD-1, mouse, in vivo, ip, 4.061 mg/kg): 30 min
AUC(0-t) (in vivo; [1]): 179 ± 6.91 ng·h/mL
Cmax (in vivo; [1]): 143 ± 27.6 ng/mL
MRT last (in vivo; [1]): 70.8 ± 6.78 min
Tmax (in vivo; [1]): 30 min
half-life (in vivo; [1]): 53.1 ± 7.8 min
Tmax of Compound A (in vivo; male, CD-1, mouse, in vivo, po, 6.645 mg/kg): 15 min
Clinical observation (tolerability) (in vivo; mouse, in vivo): well tolerated

COCCOC1(c2ccc(Cl)cc2)c2ccccc2C2=NCCN21 (stereo not shown) [Compound I-4]
% hit rate (Wistar rats; nicotine 0.05-0.2 mg/kg sc, Compound I-4 0.1-3.0 mg/kg ip, Compound I-19 0.03-1.0 mg/kg ip): decrease in the % hit rate
% correct (Wistar rats; same doses): no statistically significant dose-related effects
Magazine Head Entries (Wistar rats; same doses): decreases in the number of premature responses, timeout responses, and magazine head entries
Omissions (Wistar rats; same doses): increase in the number of omissions
number of trials completed (Wistar rats; same doses): decreases in the number of trials completed
perseverative responses (Wistar rats; same doses): no statistically significant effects on perseverative responses
premature responses (Wistar rats; same doses): the higher 3 doses of Compound I-4 were associated with a decrease
response latencies (correct, incorrect) (Wistar rats; same doses): increases in the response latencies
reward latencies (Wistar rats; same doses): some increases in the reward latencies, but they were not statistically significant
timeout responses (Wistar rats; same doses): decreases in the number of premature responses, timeout responses, and magazine head entries
